Test results taken from patent US5691349A, “Quinclidine derivatives as squalene synthase inhibitors” (Zeneca Limited, priority 1992, dated 1997).
Where a name gives a salt, the structure may show the parent alone.

Legend:
squalene synthetase = target: T1, squalene synthetase (Rattus norvegicus, UniProt Q02769); test: Inhibition of Squalene Synthetase (prevention of squalene formation from tritiated farnesyl pyrophosphate, rat liver microsomal protein); format: biochemical; conditions: rat liver microsomes; 1-[3H]-farnesyl pyrophosphate 20 μM; 37° C.; 15 minutes; read-out: IC50 (concentration which results in a 50% inhibition of squalene production)
T1 construct: rat liver microsomal protein (20 μg); from tissue; host or cells: rat liver microsomes
T1 sequence (Q02769 1-416): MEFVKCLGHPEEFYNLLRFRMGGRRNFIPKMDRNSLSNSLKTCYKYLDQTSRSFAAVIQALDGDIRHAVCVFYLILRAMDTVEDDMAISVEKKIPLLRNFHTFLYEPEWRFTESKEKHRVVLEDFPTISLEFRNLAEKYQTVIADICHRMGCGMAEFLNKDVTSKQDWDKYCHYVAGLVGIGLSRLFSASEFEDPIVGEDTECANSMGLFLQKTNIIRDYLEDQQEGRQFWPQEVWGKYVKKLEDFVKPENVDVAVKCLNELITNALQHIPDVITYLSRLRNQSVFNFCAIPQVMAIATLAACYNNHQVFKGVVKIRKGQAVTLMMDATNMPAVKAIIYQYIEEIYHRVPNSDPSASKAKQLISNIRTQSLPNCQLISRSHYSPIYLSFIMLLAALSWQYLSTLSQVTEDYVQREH
Method: (a) Inhibition of Squalene Synthetase
In this test, the ability of a compound to prevent the formation of squalene from a radioactive substrate (tritiated farnesyl pyrophosphate) is assessed.
The test compound is incubated at a concentration of 25 micromolar in 200 μl of a buffered solution containing potassium phosphate (50 mM), MgCl2 (4.95 mM), KF (9.9 mM), NADPH (0.9 mM) and rat liver microsomal protein (20 μg). Rat liver microsomes are prepared by the method described in published European Patent Application No. 324,421 and stored in liquid nitrogen prior to assay. Assay vials are kept at 37° C. throughout the incubation.
The reaction is started with the addition of the substrate (1-[^3 H]-farnesyl pyrophosphate), final concentration 20 μM, and stopped after 15 minutes reaction time with the addition of 50 μl of 4% KOH. The reaction products are separated from unreacted substrate after application to a C-18 octadecyl 1 ccBond column (Analytichem Int product No. 617101). An aqueous fraction is eluted with 250 μl of 0.1M KOH. Squalene is then eluted with 1.0 ml 10% ethylacetate in hexane and radioactivity determined. The difference in radioactivity in the presence and absence of the test compound is used to determine the level of inhibition. […] The IC50 can then be determined from a plot of percentage inhibition against concentration of test compound.

[1] = tested on: de novo hepatic cholesterol synthesis; test: Acute rat cholesterol synthesis assay (de novo hepatic cholesterol synthesis from 14C-acetate); format: in vivo; conditions: female rats, oral gavage, ip or iv dosing (route not given)
Method: (b) Acute rat cholesterol synthesis assay.
This is an acute in vivo test in the rat to measure de novo hepatic cholesterol synthesis from exogenously administered ^14 C-acetate.
Female rats (35-55 g) are housed in reverse lighting conditions (red light from 0200 h-1400 h) for a period of about 2 weeks prior to test. Animals are allowed free access to chow and drinking water throughout this period. At test, animals should weigh 125-150 g.
Test compounds may be administered by oral gavage, dissolved or suspended in 0.5% polysorbate, or by ip or iv dosing. Control animals receive vehicle alone. After 1 hour the rats are injected ip with 25 μCi [2-^14 C]-acetate (NEN DUPONT. specific activity, 45-60 mCi/mmol NEC-085H, or AMERSHAM specific activity, 50-60 mCi/mmol CFA 14) in a volume of 0.25 ml saline (100 μCi/ml). After a further hour, rats are terminally anaesthetised with halothane and a blood sample obtained from the abdominal vena cava.
1 ml of plasma is lyophilised and then saponified in 2 ml ethanolic KOH (1 part 33% KOH, 9 parts ethanol) at 75° C. for 2 hours. After addition of an equal quantity of water, non-saponifiable lipids are extracted with two 5 ml volumes of hexane. The hexane extracts are evaporated to dryness and the residues dissolved in ethanol to determine cholesterol specific radioactivity. EC50 values can be determined in the standard way.

## CCCCOc1ccc(CCC2CN3CCC2CC3)cc1 (centres unmarked) [Example 4, 3-[2-(4-butoxyphenyl)ethyl]-quinuclidine hydrochloride]
Squalene synthetase
  IC50: 33 nM

## CCCCCc1ccc(C#CC2(O)CN3CCC2CC3)cc1 (centres unmarked) [Example 18, 3-[2-(4-pentylphenyl)ethynyl]-3-hydroxyquinuclidine]
[1]
  ED50: ~21.5 mg/kg
